Measured values published in the supplement of paper PMC11628255, “Interference of metal ions on the bioluminescent signal of firefly, Renilla, and NanoLuc luciferases in high-throughput screening assays” (Frontiers in Chemistry, 2024).

Experiments:
Assay in all cases: normalised percent inhibition of luminescence (vs positive and negative controls); higher = stronger inhibition
[1] = test system: NanoLuc luciferase (NLuc)
Procedure: (§1)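 Concentration-response (>=11 concentrations) of metal salts on purified FLuc, NLuc or RLuc luminescence in screening (SC) or 100 mM HEPES (H) buffer; salt pre-incubated with enzyme 10 min at RT, read 10 min after substrate. Normalised percent inhibition vs plate positive (PTC-124, isradipine, BTS) and DMSO negative controls; triplicate wells.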

[2] = test system: Renilla luciferase (RLuc)
Procedure: as §1

[3] = test system: firefly luciferase (FLuc)
Procedure: as §1

O=S(=O)([O-])[O-].[Fe+2] [iron(II) sulfate]
normalised percent inhibition [%]
Settings	[1]	[2]	[3]
metal salt concentration 0.0001 mM, 100 mM HEPES buffer	-2.4	41.8	-15.4
metal salt concentration 0.00025 mM, 100 mM HEPES buffer	0.242	-25.1	-21.3
metal salt concentration 0.0005 mM, 100 mM HEPES buffer	3.64	-18.6	-14.6
metal salt concentration 0.001 mM, 100 mM HEPES buffer	0.251	-4.06	25.9
metal salt concentration 0.002 mM, screening conditions buffer	-6.27	2.02	1.35
metal salt concentration 0.005 mM, screening conditions buffer	5.45	11	9.94
metal salt concentration 0.01 mM, screening conditions buffer	3.08	18.2	4.1
metal salt concentration 0.02 mM, screening conditions buffer	7.25	17.5	6.54
metal salt concentration 0.025 mM, 100 mM HEPES buffer	3.97	28.6	62.5
metal salt concentration 0.05 mM, 100 mM HEPES buffer	6.24	50.9	100.1
metal salt concentration 0.05 mM, screening conditions buffer	11.5	3.55	7.51
metal salt concentration 0.1 mM, 100 mM HEPES buffer	19.9	85.8	99.99
metal salt concentration 0.1 mM, screening conditions buffer	37.5	58.5	-0.76
metal salt concentration 0.2 mM, screening conditions buffer	49.5	74.4	28.7
metal salt concentration 0.5 mM, 100 mM HEPES buffer	67.9	104.9	100.2
metal salt concentration 0.5 mM, screening conditions buffer	81.1	93.3	94.1
metal salt concentration 1 mM, 100 mM HEPES buffer	87.7	105	100.3
metal salt concentration 1 mM, screening conditions buffer	138	96	99.42
metal salt concentration 2.5 mM, 100 mM HEPES buffer	101	104	100.2
metal salt concentration 2.5 mM, screening conditions buffer	157.3	103.6	100.4
metal salt concentration 5 mM, 100 mM HEPES buffer	101.93	107	100.2
metal salt concentration 5 mM, screening conditions buffer	158.9	105	101.2

[Cl][Pt-2]([Cl])([Cl])[Cl].[K+].[K+] [potassium tetrachloroplatinate(II)]
normalised percent inhibition [%]
Settings	[1]	[2]	[3]
metal salt concentration 0.0001 mM, 100 mM HEPES buffer	1.21	6.41	-10.3
metal salt concentration 0.00025 mM, 100 mM HEPES buffer	-0.51	4.68	4.97
metal salt concentration 0.0005 mM, 100 mM HEPES buffer	2.19	-6.41	6.27
metal salt concentration 0.001 mM, 100 mM HEPES buffer	0.76	-11.3	12.9
metal salt concentration 0.002 mM, screening conditions buffer	6.88	13.4	23.2
metal salt concentration 0.005 mM, screening conditions buffer	2.83	5.74	28.2
metal salt concentration 0.01 mM, screening conditions buffer	1.24	8.68	32.2
metal salt concentration 0.02 mM, screening conditions buffer	5.06	2.57	39.4
metal salt concentration 0.025 mM, 100 mM HEPES buffer	4.56	8.38	39.2
metal salt concentration 0.05 mM, 100 mM HEPES buffer	10.3	-3.94	56.4
metal salt concentration 0.05 mM, screening conditions buffer	18.1	19.4	68.7
metal salt concentration 0.1 mM, 100 mM HEPES buffer	15.1	5.67	79.8
metal salt concentration 0.1 mM, screening conditions buffer	41.9	27.8	86
metal salt concentration 0.2 mM, screening conditions buffer	60.3	41.3	98.8
metal salt concentration 0.5 mM, 100 mM HEPES buffer	76.6	40.7	100.5
metal salt concentration 0.5 mM, screening conditions buffer	91.6	66.7	100.5
metal salt concentration 1 mM, 100 mM HEPES buffer	87.7	69.3	100.2
metal salt concentration 1 mM, screening conditions buffer	116	95.3	99.57
metal salt concentration 2.5 mM, 100 mM HEPES buffer	93.7	97.4	100.4
metal salt concentration 2.5 mM, screening conditions buffer	129.7	105.3	100.7
metal salt concentration 5 mM, 100 mM HEPES buffer	96.98	106	100.4
metal salt concentration 5 mM, screening conditions buffer	134.6	106.2	100.8

O=[N+]([O-])[O-].O=[N+]([O-])[O-].[Cu+2] [copper(II) nitrate]
normalised percent inhibition [%]
Settings	[1]	[2]	[3]
metal salt concentration 0.0001 mM, 100 mM HEPES buffer	-0.372	-51.9	87.3
metal salt concentration 0.00025 mM, 100 mM HEPES buffer	-0.297	-48.5	98.97
metal salt concentration 0.0005 mM, 100 mM HEPES buffer	1.75	-45.4	100.2
metal salt concentration 0.001 mM, 100 mM HEPES buffer	0.0805	-40	100.5
metal salt concentration 0.002 mM, screening conditions buffer	14.1	-3.55	–
metal salt concentration 0.005 mM, screening conditions buffer	18.8	-13.6	–
metal salt concentration 0.01 mM, 100 mM HEPES buffer	7.71	62.8	–
metal salt concentration 0.01 mM, screening conditions buffer	65.1	-1.01	–
metal salt concentration 0.02 mM, screening conditions buffer	133	-23.7	–
metal salt concentration 0.025 mM, 100 mM HEPES buffer	59.8	105	100.3
metal salt concentration 0.05 mM, 100 mM HEPES buffer	95.4	106	100.6
metal salt concentration 0.05 mM, screening conditions buffer	135.6	-13	–
metal salt concentration 0.1 mM, 100 mM HEPES buffer	99.6	106.6	100.5
metal salt concentration 0.1 mM, screening conditions buffer	136.5	-8.47	–
metal salt concentration 0.2 mM, screening conditions buffer	136.6	105.7	–
metal salt concentration 0.5 mM, 100 mM HEPES buffer	101.5	105	100.5
metal salt concentration 0.5 mM, screening conditions buffer	137.2	107	–
metal salt concentration 1 mM, 100 mM HEPES buffer	101.9	–	100.4
metal salt concentration 1 mM, screening conditions buffer	137.4	105.8	–
metal salt concentration 2.5 mM, 100 mM HEPES buffer	101	–	100.4
metal salt concentration 2.5 mM, screening conditions buffer	137.3	105.7	–
metal salt concentration 5 mM, 100 mM HEPES buffer	102.11	–	99.95
metal salt concentration 5 mM, screening conditions buffer	137.49	106.3	–

[Cl][Fe][Cl] [iron(II) chloride]
normalised percent inhibition [%]
Settings	[1]	[2]	[3]
metal salt concentration 0.0001 mM, 100 mM HEPES buffer	-0.558	-50	-43.3
metal salt concentration 0.00025 mM, 100 mM HEPES buffer	-2.01	-20.5	-33.6
metal salt concentration 0.0005 mM, 100 mM HEPES buffer	-2.14	-32.5	-33.5
metal salt concentration 0.001 mM, 100 mM HEPES buffer	-0.324	-19.3	-45.9
metal salt concentration 0.002 mM, screening conditions buffer	-2.42	-4.21	-3.52
metal salt concentration 0.005 mM, screening conditions buffer	1.43	1.72	1.02
metal salt concentration 0.01 mM, screening conditions buffer	5.7	-1.72	2
metal salt concentration 0.02 mM, screening conditions buffer	-0.122	16.1	1.67
metal salt concentration 0.025 mM, 100 mM HEPES buffer	3.65	16.3	53.6
metal salt concentration 0.05 mM, 100 mM HEPES buffer	5.35	43.1	99.99
metal salt concentration 0.05 mM, screening conditions buffer	-5.75	-2.31	3.62
metal salt concentration 0.1 mM, 100 mM HEPES buffer	17.2	86.8	100.4
metal salt concentration 0.1 mM, screening conditions buffer	22.5	54.2	14.5
metal salt concentration 0.2 mM, screening conditions buffer	40.4	71.6	22.9
metal salt concentration 0.5 mM, 100 mM HEPES buffer	61.9	105	99.99
metal salt concentration 0.5 mM, screening conditions buffer	64	84.8	98
metal salt concentration 1 mM, 100 mM HEPES buffer	85.4	103	100.5
metal salt concentration 1 mM, screening conditions buffer	96	93.3	100.7
metal salt concentration 2.5 mM, 100 mM HEPES buffer	99.74	108.1	100.2
metal salt concentration 2.5 mM, screening conditions buffer	151	105	99.42
metal salt concentration 5 mM, 100 mM HEPES buffer	101.7	108	100.3
metal salt concentration 5 mM, screening conditions buffer	160.2	106	100.9
